“And” between values parts separate entries of the source, which are not always exact repeats. Identical values can stand only once.
Legend:
[1] = Mass balance: excretion of radioactivity in urine and faeces after a single oral [14C]apremilast dose; assay type: in vivo, human
Experimental: This was an open-label, inpatient, single-dose study conducted with six non-smoking healthy male volunteers, aged between 19 and 55 years, with body mass index between 19 and 29kg/m^2. Before initiation of the study, the protocol and consent form were reviewed and approved by the institutional review board. All study participants gave written informed consent before the screening process was initiated. This study was conducted in full accordance with the Declaration of Helsinki and Good Clinical (GCP) as required by and described in 21 Code of Federal Regulations.
(§1) Each subject was administered a single oral suspension of 20 mg (100 μCi) of [^14C] apremilast in distilled water (240mL total volume). Subjects were fasted for 8 h prior to and 4 h following dose administration. The residual radioactivity in the dosing vials was determined and accounted for approximately 0.3% of the total radioactivity. Dose administration, sample collection, sample processing and determination of total radioactivity were conducted at MDS Pharma Services (Lincoln, NE). Determination of apremilast in plasma, metabolite profiling and metabolite characterization were performed at XenoBiotic Laboratories, Inc. (Plainsboro, NJ).
(§2) Urine was collected pre-dose, 0-4, 4-8, 8-12, 12-24 and every 24 h thereafter up to 216h (9 days) following dose administration and was stabilized with one volume of pH 1.5 Sorensen's citrate buffer (25-mM sodium citrate buffer adjusted to pH 1.5). […] Blood (two 5-mL samples for plasma radioactivity counting, a 3-mL sample for whole blood radioactivity counting, a 2-mL sample for apremilast analysis and a 10-mL sample for metabolite profiling) was collected into heparinized tubes at pre-dose, 0.5, 1, 1.5, 2, 2.5, 3, 4, 6, 8, 12, 16, 24, 36, 48, 72, 96, 120, 144 and 168 h following dose administration. Blood samples collected for radioactivity counting were stored at or below -20°C until analysed. […] All urine, faecal homogenates and plasma samples were stored at or below -20°C until analysed.
(§3) All radioactivity determinations were performed using a Tri-Carb model 1600TR liquid scintillation counter (PerkinElmer, Wellesley, MA). For plasma and urine analysis, duplicate samples of a known volume were mixed with Ultima Gold XR scintillation cocktail and directly analysed by liquid scintillation counting. […] Using these criteria, the lower limit of quantification in plasma, blood, urine and faeces were 2.07 ng [^14C]apremilast equivalent/mL (ngEq/mL), 2.61 ngEq/g, 1.89 ngEq/mL and 2.52 ngEq/g, respectively.
The amount of total radioactivity (ngEq) in urine and faeces was determined by multiplying the volume or weight of the samples by the radioactivity concentration. […] For data values below the limit of quantification, a value of zero was assigned for calculations of means.

[2] = Total radioactivity pharmacokinetics in plasma and whole blood; assay type: in vivo, human; settings: single oral 20-mg dose
Experimental: as §1, §2
as §3, with “respectively. […]” for “respectively.”

[3] = system: PDE4 enzyme isolated from U937 human monocytic cells; assay: PDE4 inhibition, cAMP hydrolysis assay; assay type: biochemical; settings: PDE4 from U937 cells, cAMP hydrolysis
Experimental: PDE4 enzyme was isolated from U937 human monocytic cells and used for testing inhibition in a cAMP hydrolysis assay as previously described ([Schafer et al. 2010]). For the TNF-α production assay, human peripheral blood mono-nuclear cells (PBMC) were isolated from buffy coat of normal donor blood units (Blood Center of New Jersey, East Orange, NJ) by density centrifugation over Ficoll Hypaque (Pharmacia, Piscataway, NJ). Cells were cultured in RPMI 1640 (Life Technologies, Grand Island, NY) supplemented with 5% AB^+ human serum (Gemini Bio-products, Woodland, CA), 2-mM L-glutamine, 100-U/mL penicillin and 100-μg/mL streptomycin (Life Technologies). PBMC (2×10^5 cells) were plated in 96-well flat-bottom Costar tissue culture plates (Corning, NY) in duplicate. Cells were stimulated with lipopolysaccharides (LPS) (from Salmonella abortus equi; Sigma cat.no. L-1887, St.Louis, MO) at a final concentration of 1 ng/mL in the absence or presence of compounds. The compounds were dissolved in DMSO (Sigma) and subsequent dilutions were done in culture medium immediately before use. The compounds were added to cells 1 h before LPS stimulation. The cells were incubated for 16-18 h at 37°C in 5% CO2, and super-natants were then collected, diluted with culture medium and assayed for TNF-α levels by enzyme-linked immunosorbent assay (ThermoFisher, Rockford, IL). Fifty percent inhibitory concentrations (IC50) for the PDE4 enzymatic and TNF-α assay were calculated by non-linear regression analysis using Prism 5.1 (GraphPad Software). Regression curves were sigmoidal dose response curves with maximum and minimum constrained to 100% and 0%, respectively.

[4] = cited from earlier work
CYP3A4 = system: CYP3A4; design: method as in Wu et al. 2006; settings: co-administration with ketoconazole, healthy subjects; ref Wu et al. 2006; cited from earlier work
[5] = patients, 20 mg daily for 29 days, capsules, ref Gottlieb et al. 2008

## CCOc1cc([C@@H](CS(C)(=O)=O)N2C(=O)c3cccc(NC(C)=O)c3C2=O)ccc1OC [Apremilast, (+)-N-[2-[(lS)-1-(3-ethoxy-4-methoxyphenyl)-2-(methylsulfonyl)ethyl]-1,3-dioxo-2,3-dihydro-lH-isoindol-4-yl]acetamide]
[1]; based on urinary radioactivity
  Amount of drug absorbed: at least 58%
[1]; collection over 216 h, listed as [^14C]apremilast
  Faecal excretion of radioactivity, mean (percentage of dose): 39% and 39.2%
[1]; if faecal metabolites are included in the calculation
  Amount of drug absorbed: > 80%
[1]; urine plus faeces, 96 h after dose, listed as [^14C]apremilast
  Radioactivity recovered within the first 4 days (96 h): > 90% and > 92%
[2]
  Share of AUC0-∞ for radioactivity in plasma between 0 and 96 h: approximately 90%
  Share of AUC0-∞ for radioactivity in plasma from AUC96-∞: 10%
[2]; median (min-max), listed as [^14C]apremilast
  Plasma total radioactivity Tmax: < 2 h
[3]
  IC50: 74 nM
[4]; patients with severe plaque-type psoriasis, multiple daily doses, ref Gottelieb et al. 2008
  half-life: 8.2 h
[4]; [5]
  AUC0-24: 1799 ng·h/mL
  Cmax: 207 ng/mL
CYP3A4
  Increase in apremilast AUC: 36%
  Increase in mean apremilast Cmax: 5%

Reference: PMC3231940, “Disposition, metabolism and mass balance of [^14C]apremilast following oral administration” (Xenobiotica; the Fate of Foreign Compounds in Biological …, 2011)
